One molecule from patent US20220024964A1, “Cyclic Di-Nucleotide Compounds as STING Agonists” (Merck Sharp & Dohme Corp., priority 2018, published 2022) can be followed below.

pEC50: −log10 of the molar value.

For test [1], the system named is THP1 cells. Description: IFN-β secretion in THP1 cell culture (5 h). In kind it is cell-based, human. The note with it: 30 μM compound, 30 uM cGAMP = 100%. On the procedure:
The ability of compounds to stimulate the secretion of interferon-beta from THP1 cells was measured using a human IFN-β AlphaLISA kit (Perkin Elmer, Cat. No. AL265F). The basic protocol is as follows:
A Labcyte Echo 550 acoustic dispenser was used to transfer 120 nL of compound dissolved in DMSO into the wells of an empty, sterile 384-well microplate, (Corning, Cat. No. 3712). THP1 cells (American Type Culture Collection, Cat. No. TIB202) previously frozen in Recovery Medium (Life Technologies, Cat. No. 12648-010) were thawed and immediately diluted 10-fold into 37° C. assay medium (RPMI 1640+L-Glutamine & phenol red, Life Technologies, Cat. No. 11875-085; 0.5% heat inactivated fetal bovine serum, Sigma Aldrich, Cat. No. F4135; 1 mM Sodium Pyruvate, Life Technologies, Cat. No. 11360-070; lx non-essential amino acids; Life Technologies, Cat. No. 11140-050). The cell viability and count was ascertained using a Beckman Coulter V-Cell XR cell counter. The cell suspension was centrifuged at 200×g for 5 min at RT. […]
The assay was started by dispensing 40 μL of the previously prepared cell suspension into the wells of the plate containing compounds. […] The plate was then read on a Perkin Elmer Envision (λex=680 nm, λcm=570 nm). The percent effect of the AlphaLISA signal at each compound concentration was calculated based on 30 uM cGAMP positive controls and 0.3% DMSO negative controls. […]

In test [2] the target is T1, full-length HAQ STING (Homo sapiens, UniProt Q86WV6, G230A/H232R/R293Q/R71H).
T1 construct: Full-Length HAQ STING [STING(1-379)R71H, G230A, H232R,; made in house; host or cells: Trichoplusia ni (Hi-Five) insect cells via baculovirus (virus made in Sf21); used as a membrane preparation
T1 sequence (Q86WV6 with tags, fused parts or gaps R71H/G230A/H232R/R293Q): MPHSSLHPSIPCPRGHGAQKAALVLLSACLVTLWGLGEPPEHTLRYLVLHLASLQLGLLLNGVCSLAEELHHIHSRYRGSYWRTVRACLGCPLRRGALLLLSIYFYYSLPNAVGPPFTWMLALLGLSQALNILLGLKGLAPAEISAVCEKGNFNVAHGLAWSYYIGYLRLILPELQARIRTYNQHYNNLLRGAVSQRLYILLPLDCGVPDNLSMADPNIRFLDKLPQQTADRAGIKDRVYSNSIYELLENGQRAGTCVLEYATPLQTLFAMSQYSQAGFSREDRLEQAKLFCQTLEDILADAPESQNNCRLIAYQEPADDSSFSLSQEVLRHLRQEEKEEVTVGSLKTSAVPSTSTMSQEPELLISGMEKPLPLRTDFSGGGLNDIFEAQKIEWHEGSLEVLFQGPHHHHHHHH
In words: 3H-cGAMP filtration binding assay (HAQ STING). To be noted: competition with tritiated cGAMP ligand, HAQ STING membrane. An excerpt:
The ability of compounds to bind STING is quantified by the ability to compete with tritiated cGAMP ligand for human STING receptor membrane using a radioactive filter-binding assay. The binding assay employs STING receptor obtained from Hi-Five cell membranes overexpressing full-length HAQ STING prepared in-house and tritiated cGAMP ligand also purified in-house.
The ability of compounds to bind STING is quantified by their ability to compete with tritiated cGAMP ligand for human STING receptor membrane using a radioactive filter-binding assay. The binding assay employs STING receptor obtained from Trichoplusia ni cell membranes (T. ni; Expression Systems, cat #94-002F, www.expressionsystems.com) overexpressing full-length HAQ STING and tritiated cGAMP ligand.
The basic HAQ STING filtration assay protocol is as follows: The compounds were serially titrated by the Hamilton STARPlus CORE in a 96-well plate (Greiner, #651201) using a 1:3 ten-point dose response format. […] Tritium levels for each reaction well were then measured using a PerkinElmer TopCount plate reader.
(§1) After normalization to controls, the percent activity for each compound concentration was calculated by measuring the amount of remaining radioactivity. […]

The target in test [3] is T2, full-length WT STING (Homo sapiens, UniProt Q86WV6, H232R).
T2 construct: Full-Length STING WT [STING(1-379)H232R-gg-AviTag-gs-; made in house; host or cells: Trichoplusia ni insect cells via baculovirus (virus made in Sf21); used as a membrane preparation
T2 sequence (Q86WV6 with tags, fused parts or gaps H232R): as the sequence (Q86WV6 with tags, fused parts or gaps R71H/G230A/H232R/R293Q) above, with H71R, A230G, Q293R counted along it
Description: 3H-cGAMP filtration binding assay (WT STING). The note with it: competition with tritiated cGAMP ligand, WT STING membrane. On the procedure:
The ability of compounds to bind STING is quantified by their ability to compete with tritiated cGAMP ligand for human STING receptor membrane using a radioactive filter-binding assay. The binding assay employs STING receptor obtained from Trichoplusia ni cell membranes (T. ni; Expression Systems, cat #94-002F, www.expressionsystems.com) overexpressing full-length WT STING and tritiated cGAMP ligand.
The basic WT STING filtration assay protocol is as follows: 16 nM of [^3H] c-GAMP ligand was prepared by diluting into assay buffer, and 50 uL of this working stock was manually added to each well of the assay plate. After ligand addition, 2 uL of either titrated test compound, DMSO control (Sigma #276855), or cold cGAMP control was added to the appropriate wells using a BIOMEK FX. The serially titrated compound was prepared on a Hamilton STARPlus CORE in a 96-well plate (Greiner, #651201) using a 1:3 ten-point dose response format. […] Tritium levels for each reaction well were then measured using a PerkinElmer TopCount plate reader.
as §1

`Nc1nc2c(ncn2[C@@H]2O[C@@H]3COP(=O)(S)O[C@@H]4C[C@H](n5cnc6c(N)ncnc65)O[C@@H]4COP(=O)(S)O[C@H]2C3)c(=O)[nH]1` (stereo partly drawn) [Example 1, 2-amino-9-[(5S,7R,8S,12aR,14R,15aR)-14-(6-amino-9H-purin-9-yl)-2,10-dioxido-2,10-disulfanyloctahydro-12H-5,8-methanofuro[3,2-1][1,3,6,9,11,2,10]pentaoxadiphosphacyclotetradecin-7-yl]-1,9-dihydro-6H-purin-6-one]: the “% Effect at 30 μM relative to 2′3′-cGAMP” value in test [1] amounted to 107%. Besides, the pEC50 in test [2] was 7.31; in test [3] it was 6.93.
